Values after ≈ are worked out from the molar mass of the structure shown.
Legend:
[1] = Thermodynamic solubility of the compound by quantitative nitrogen detection assay; format: physicochemical; conditions: read-out: Therm_solubility
[2] = Plasma concentration in CD1 mouse at 10 mg/kg, ip measured after 7 hrs by LC-MS/MS analysis; format: ADME, organism-based
[3] = Metabolic stability in CD1 mouse liver microsomes assessed as half life at 1 uM in presence of NADPH by LC-MS/MS analysis; format: ADME, microsome
Mus musculus [4] = test: Time at which plasma concentration stays above invitro effective concentration for inhibition of ALDH1A3 in human OVCAR5 cells in CD1 mouse at 10 mg/kg, ip by LC-MS/MS analysis; format: organism-based; conditions: in vivo
Mus musculus [5] = test: Time at which plasma concentration stays above invitro effective concentration for inhibition of ALDH1A3 in human PEO1 cells in CD1 mouse at 10 mg/kg, ip by LC-MS/MS analysis; format: organism-based; conditions: in vivo
Mus musculus [6] = test: AUC (0 to 7 hrs) in CD1 mouse at 10 mg/kg, ip measured after 7 hrs by LC-MS/MS analysis; format: ADME, organism-based; design: dose 10 mg/kg, time < 7 hr, route intraperitoneal; conditions: in vivo
[7] = Plasma concentration in CD1 mouse at 10 mg/kg, ip measured after 2 hrs by LC-MS/MS analysis; format: ADME, organism-based
[8] = Plasma concentration in CD1 mouse at 10 mg/kg, ip measured after 0.5 hrs by LC-MS/MS analysis; format: ADME, organism-based
[9] = Plasma concentration in CD1 mouse at 10 mg/kg, ip measured after 4 hrs by LC-MS/MS analysis; format: ADME, organism-based

SMILES | solubility thermodynamic [1] | t1/2 [3] | other results
Cn1ncc2c(=O)n(-c3cccc(Cl)c3)c(SCc3cccc(F)c3)nc21 | 55 µM (≈ 22 µg/mL) | – | –
O=c1c2cn(CC3COC3)nc2nc(SCc2cccc(F)c2)n1-c1ccccc1 | 53 µM (≈ 22.4 µg/mL) | 27 min | concentration at 7 h [2]: 100 nM; Time (Mus musculus [4]): 4 h; Time (Mus musculus [5]): 4 h; AUC (Mus musculus [6]): 11 µM·h; concentration at 2 h [7]: 2.6 µM; concentration at 0.5 h [8]: 5.6 µM; concentration at 4 h [9]: 600 nM
O=c1c2cnn(C3COC3)c2nc(SCc2cccc(F)c2)n1-c1ccccc1 | 8 µM (≈ 3.27 µg/mL) | – | –
O=c1c2cn(C3COC3)nc2nc(SCc2cccc(F)c2)n1-c1ccccc1 | 5 µM (≈ 2.04 µg/mL) | – | concentration at 7 h [2]: 900 nM; AUC (Mus musculus [6]): 27.8 µM·h; concentration at 2 h [7]: 5.2 µM; concentration at 0.5 h [8]: 7.6 µM; concentration at 4 h [9]: 3000 nM
Cc1ccccc1-n1c(SCc2cccc(F)c2)nc2[nH]ncc2c1=O | 2 µM (≈ 0.733 µg/mL) | 9 min | –
Cn1cc2c(=O)n(-c3ccccc3)c(SCc3cccc(F)c3)nc2n1 | 69 µM (≈ 25.3 µg/mL) | 13 min | –

The next lines start with results.

solubility thermodynamic [1] | t1/2 [3] | SMILES | other results
< 0.7 µM | – | Cn1ncc2c(=O)n(-c3ccccc3)c(SCc3cccc(F)c3)nc21 | –
3 µM (≈ 1.18 µg/mL) | – | Cn1ncc2c(=O)n(CCc3ccccc3)c(SCc3cccc(F)c3)nc21 | –
38 µM (≈ 14.5 µg/mL) | – | Cc1ccccc1-n1c(SCc2cccc(F)c2)nc2c(cnn2C)c1=O | –
5 µM (≈ 1.9 µg/mL) | – | Cn1ncc2c(=O)n(Cc3ccccc3)c(SCc3cccc(F)c3)nc21 | –
